In patent US10758517B2, “mPGES-1 inhibitor for the treatment of osteoarthritis pain” (Glenmark Pharmaceuticals S.A., priority 2017, dated 2020):
Marks after values point to notes of the source that are not given here.

System: LPS-induced PGE2 release
Experiment: Ex vivo LPS-induced PGE2 release in whole blood, single dose crossover versus celecoxib (Example 1, Part 3)
Design: species or system human
Conditions: single oral dose 400 mg, fasted healthy subjects
Protocol: Part 2 was a single-dose, double-blind study in a single cohort of elderly subjects. Part 3 was an open-label, randomized, 2-period, single-dose, crossover study to compare effects of the highest tolerated Compound I dose and celecoxib on prostanoid metabolism in healthy adult subjects.
In Part 3, Compound I was administered at a dose of 1000 mg after fasting. All subjects received Compound I and all subjects received 400 mg celecoxib in a cross-over study design.
In Parts 1a and 3, whole blood samples were incubated and analyzed for lipopolysaccharide (LPS)-induced prostaglandin PGE2 release. In Part 3, urine samples were collected for analysis of prostanoid metabolites.
Summary statistics were presented for the PK, pharmacodynamic (PD) and safety data, as appropriate. PK parameters following single oral doses of Compound I were determined from the plasma concentrations of Compound I using non-compartmental procedures in WinNonlin Dose proportionality was assessed using a power model, with tmax analyzed using the Kruskal-Wallis test. The effect of food on PK was assessed at the 100 and 250 mg doses using a mixed effects model. The effect of age on PK was assessed for elderly (>65 years) versus non-elderly (<65 years) at the 250 mg dose level in Parts 1a and 2, using an analysis of variance (ANOVA) with age as a fixed effect. For PD analyses, percent decrease of ex vivo LPS-induced PGE2 release was calculated. For Part 3, urinary excretion of prostanoid metabolites was also evaluated. The data are presented as absolute, as well as creatinine normalized urinary biomarker amounts, along percent change from baseline over a definite time interval. The percent change from baseline in urinary biomarkers was assessed using an analysis of covariance (ANCOVA) model
Percent change in ex vivo LPS-induced PGE2 release in whole blood is the pharmacodynamic (PD) biomarker. The PGE2 levels in whole blood were estimated using the homogeneous time-resolved fluorescence method.
Concentrations below the limit of quantification were treated as ½ the lower limit of quantification for calculation.
Time points where unstimulated prostaglandin E2 (PGE2) concentration was more than 3 times greater than the mean unstimulated PGE2 and equal to or greater than ½ baseline value for an individual subject were not included in the calculation of % inhibition.

Cc1ccc(-c2cc(C(F)(F)F)nn2-c2ccc(S(N)(=O)=O)cc2)cc1 [Celecoxib, celecoxib, reference compound]
EAUC0-24 h, LS mean: 1421 % · h | ETmax (time to reach maximum effect), Median: 6.00 h | Epeak (maximum % inhibition), LS mean: 89.1% | EAUC0-336 h, LS mean (N = 18): −10159^a % · h
